Test results reported in PubChem BioAssay AID330 (DTP/NCI, 2004).
Several values for one entry are separate records, joined by “and”; a condition that tells them apart may be missing. Equal values may be shown once. Inconclusive results and toxic doses are left out. The calls were made as follows: active = survival T/C of 150% or more; inactive = T/C below 125% in these data. Numbered stars: 1 amine (or outer) side, 2 acyl side, 3 side chain; on linkers, the order of the positions; unused ones are H or OH. Square brackets hold non-standard residues; d marks the D form. Peptide text beside a SMILES is read from it. * marks the point of attachment. X18 = CCC(=O)CC1CC(C)CC(C(=O)[*:2])N1[*:1]; X17 = CCCCCCCCC(C)C(=O)*; Aib = CC(C)(N)C(=O)O; X19 = CC(CN(C)CCO)N*

Test system: P388 leukemia ip, CD2F1 mice, survival T/C
Assay: NCI In Vivo Anticancer Drug Screen. Data for tumor model P388 Leukemia (intraperitoneal) in CD2F1 (CDF1) mice
Conditions: endpoint: median survival time, higher = longer survival
Outline: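 Mice carrying the transplanted tumor received test compound or vehicle. Survival was recorded in each group, and the value is the treated-group measurement divided by that of the vehicle-treated control group.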

[1] = dose: 60.0 mg/kg/injection, schedule: Q01DX005 (ip), vehicle: saline with Tween-80
[2] = dose: 50.0 mg/kg/injection, schedule: Q01DX009 (ip), vehicle: saline
[3] = dose: 100.0 mg/kg/injection, schedule: Q01DX009 (ip), vehicle: saline
[4] = dose: 200.0 mg/kg/injection, schedule: Q01DX009 (ip), vehicle: saline
[5] = dose: 25.0 mg/kg/injection, schedule: Q04DX003 (ip), vehicle: saline with Tween-80
[6] = dose: 50.0 mg/kg/injection, schedule: Q04DX003 (ip), vehicle: saline with Tween-80
[7] = dose: 100.0 mg/kg/injection, schedule: Q04DX003 (ip), vehicle: saline with Tween-80
[8] = dose: 100.0 mg/kg/injection, schedule: Q01DX001 (ip), vehicle: Klucel (hydroxypropylcellulose) (HPC)
[9] = dose: 200.0 mg/kg/injection, schedule: Q01DX001 (ip), vehicle: Klucel (hydroxypropylcellulose) (HPC)
[10] = dose: 200.0 mg/kg/injection, schedule: Q04DX003 (ip), vehicle: saline with Tween-80
[11] = dose: 50.0 mg/kg/injection, schedule: Q01DX009 (ip), vehicle: saline with Tween-80
[12] = dose: 100.0 mg/kg/injection, schedule: Q01DX009 (ip), vehicle: saline with Tween-80
[13] = dose: 200.0 mg/kg/injection, schedule: Q01DX009 (ip), vehicle: saline with Tween-80
[14] = dose: 120.0 mg/kg/injection, schedule: Q01DX005 (ip), vehicle: saline with Tween-80
[15] = dose: 240.0 mg/kg/injection, schedule: Q01DX005 (ip), vehicle: saline with Tween-80
[16] = dose: 60.0 mg/kg/injection, schedule: Q01DX005 (ip), vehicle: Klucel (hydroxypropylcellulose) (HPC)
[17] = dose: 120.0 mg/kg/injection, schedule: Q01DX005 (ip), vehicle: Klucel (hydroxypropylcellulose) (HPC)
[18] = dose: 240.0 mg/kg/injection, schedule: Q01DX005 (ip), vehicle: Klucel (hydroxypropylcellulose) (HPC)

Measured: T/C

CCOC(=O)C1=C(c2ccccc2)N=c2ccccc2=S1C (centres undefined)
inactive: dose: 15.0 mg/kg/injection, schedule: Q01DX005 (ip), vehicle: saline with Tween-80 96 % of control | dose: 30.0 mg/kg/injection, schedule: Q01DX005 (ip), vehicle: saline with Tween-80 99 % of control | [1] 98 % of control and 94 % of control

CNC(=S)N/N=C(/C)CSCC(=O)OC
inactive: [2] 100 % of control | [3] 92 % of control | [4] 91 % of control

O=CCC1CC2CCCCN2O1 (centres undefined)
inactive: [5] 102 % of control | [6] 101 % of control | [7] 108 % of control

CC(=O)OCc1c(Cl)nc2sccn12
inactive: [8] 104 % of control and 108 % of control | [9] 109 % of control and 117 % of control

OC1CN(CCCCCCN2CC(O)ON2)NO1 (centres undefined)
inactive: [2] 93 % of control | [3] 93 % of control | [4] 97 % of control

CCOc1ccc(/C=N/NS(=O)(=O)c2ccccc2)cc1OC
inactive: [7] 100 % of control | [10] 95 % of control | dose: 400.0 mg/kg/injection, schedule: Q04DX003 (ip), vehicle: saline with Tween-80 100 % of control

NC(=S)N/N=C/c1c(Br)nc2sccn12
inactive: [8] 97 % of control | [9] 89 % of control | dose: 400.0 mg/kg/injection, schedule: Q01DX001 (ip), vehicle: Klucel (hydroxypropylcellulose) (HPC) 89 % of control

CC(C)(C)N=C(CCN1CCCCC1)Nc1ccc(Cl)cc1
inactive: [11] 113 % of control | [12] 112 % of control | [13] 111 % of control

CCCCCCCCCCCC(=O)OC1CCC2(C)C(=CCC3C2CCC2(C)C(C(C)CCC(CC)C(C)C)CCC32)C1 (centres undefined)
inactive: [11] 104 % of control | [12] 95 % of control | [13] 90 % of control

CN(C)c1ccc(/C=N/NC(=O)c2ccccc2N)c(Cl)c1
inactive: [1] 96 % of control | [14] 89 % of control

COc1cc(C(=O)Nc2cccc(Cl)c2Cl)cc(OC)c1OC
inactive: dose: 50.0 mg/kg/injection, schedule: Q01DX005 (ip), vehicle: Klucel (hydroxypropylcellulose) (HPC) 104 % of control | dose: 100.0 mg/kg/injection, schedule: Q01DX005 (ip), vehicle: Klucel (hydroxypropylcellulose) (HPC) 96 % of control | dose: 200.0 mg/kg/injection, schedule: Q01DX005 (ip), vehicle: Klucel (hydroxypropylcellulose) (HPC) 92 % of control

CC(=O)NCCSC(NC(=O)c1ccccc1)C(=O)O (centres undefined)
inactive: dose: 50.0 mg/kg/injection, schedule: Q01DX009 (ip), vehicle: Klucel (hydroxypropylcellulose) (HPC) 90 % of control | dose: 100.0 mg/kg/injection, schedule: Q01DX009 (ip), vehicle: Klucel (hydroxypropylcellulose) (HPC) 101 % of control | dose: 200.0 mg/kg/injection, schedule: Q01DX009 (ip), vehicle: Klucel (hydroxypropylcellulose) (HPC) 98 % of control

CCCCCCCCCCC1(O)OC(=O)C(C)=C1C (centres undefined)
inactive: dose: 12.5 mg/kg/injection, schedule: Q04DX003 (ip), vehicle: saline with Tween-80 100 % of control | [5] 101 % of control | [6] 100 % of control

COc1ccc2cc1Oc1ccc(cc1)CC1c3cc(OC)c(OC)c(c3CCN1C)Oc1c(O)c(OC)cc3c1C(C2)N(C)CC3 (centres undefined)
inactive: dose: 20.0 mg/kg/injection, schedule: Q01DX009 (ip), vehicle: Klucel (hydroxypropylcellulose) (HPC) 109 % of control | dose: 40.0 mg/kg/injection, schedule: Q01DX009 (ip), vehicle: Klucel (hydroxypropylcellulose) (HPC) 108 % of control | dose: 80.0 mg/kg/injection, schedule: Q01DX009 (ip), vehicle: Klucel (hydroxypropylcellulose) (HPC) 101 % of control | dose: 160.0 mg/kg/injection, schedule: Q01DX009 (ip), vehicle: Klucel (hydroxypropylcellulose) (HPC) 113 % of control

CCCCCCCCCCCCCCCCN1CCC2SC3CN(CCCCCCCCCCCCCCCC)CCC3SC2C1 (centres undefined)
inactive: [11] 99 % of control | [12] 96 % of control | [13] 97 % of control

COc1ccc(Cc2n[nH]c(=S)n2-c2cc(C)ccc2C)cc1OC
inactive: [1] 102 % of control | [14] 91 % of control | [15] 93 % of control

O=[N+]([O-])c1ccc(O)c([N+](=O)[O-])c1
inactive: dose: 1.0 mg/kg/injection, schedule: Q01DX005 (ip), vehicle: saline with Tween-80 96 % of control | dose: 2.0 mg/kg/injection, schedule: Q01DX005 (ip), vehicle: saline with Tween-80 108 % of control | dose: 4.0 mg/kg/injection, schedule: Q01DX005 (ip), vehicle: saline with Tween-80 106 % of control | dose: 6.25 mg/kg/injection, schedule: Q01DX009 (ip), vehicle: saline with Tween-80 100 % of control | dose: 8.0 mg/kg/injection, schedule: Q01DX005 (ip), vehicle: saline with Tween-80 104 % of control | dose: 12.5 mg/kg/injection, schedule: Q01DX009 (ip), vehicle: saline with Tween-80 100 % of control | dose: 16.0 mg/kg/injection, schedule: Q01DX005 (ip), vehicle: saline with Tween-80 103 % of control | dose: 25.0 mg/kg/injection, schedule: Q01DX009 (ip), vehicle: saline with Tween-80 90 % of control | [5] 90 % of control | dose: 32.0 mg/kg/injection, schedule: Q01DX005 (ip), vehicle: saline with Tween-80 102 % of control

CC(C)N=C(c1ccccc1)N1CCCCC1
inactive: dose: 12.5 mg/kg/injection, schedule: Q01DX009 (ip), vehicle: saline 98 % of control | dose: 25.0 mg/kg/injection, schedule: Q01DX009 (ip), vehicle: saline 100 % of control

CCCCCCCCC(C)C(=O)N1CCCC1C(=O)N1C(CC(=O)CC)CC(C)CC1C(=O)NC(C)C(=O)NC(C)(C)C(=O)NC(C)(C)C(=O)NC(C(=O)NC(C)C(=O)NC(C)(C)C(=O)NC(C)(C)C(=O)NC(C)CN(C)CCO)C(C)CC (centres undefined) (X17-P[X18]A[Aib][Aib]IA[Aib][Aib]-X19; configuration not given here)
inactive: dose: 0.62 mg/kg/injection, schedule: Q01DX009 (ip), vehicle: Klucel (hydroxypropylcellulose) (HPC) 120 % of control | dose: 1.25 mg/kg/injection, schedule: Q01DX009 (ip), vehicle: Klucel (hydroxypropylcellulose) (HPC) 118 % of control | dose: 2.5 mg/kg/injection, schedule: Q01DX009 (ip), vehicle: Klucel (hydroxypropylcellulose) (HPC) 110 % of control

COc1cc2cc(c1Cl)N(C)C(=O)CC(O)C1(C)OC1C(C)C1CC(O)(NC(=O)O1)C(OC)/C=C/C=C(C)C2OC (centres undefined)
inactive: dose: 4.0 micrograms/kg/injection, schedule: Q01DX009 (ip), vehicle: distilled water + Tween-80 + alcohol 97 % of control | dose: 8.0 micrograms/kg/injection, schedule: Q01DX009 (ip), vehicle: distilled water + Tween-80 + alcohol 104 % of control | dose: 16.0 micrograms/kg/injection, schedule: Q01DX009 (ip), vehicle: distilled water + Tween-80 + alcohol 97 % of control | dose: 32.0 micrograms/kg/injection, schedule: Q01DX009 (ip), vehicle: distilled water + Tween-80 + alcohol 107 % of control | dose: 32.0 micrograms/kg/injection, schedule: Q01DX009 (ip), vehicle: distilled water + alcohol 99 % of control | dose: 64.0 micrograms/kg/injection, schedule: Q01DX009 (ip), vehicle: distilled water + alcohol 101 % of control | dose: 128.0 micrograms/kg/injection, schedule: Q01DX009 (ip), vehicle: distilled water + alcohol 101 % of control

CCOC(=O)Nc1cc(NCC(=O)c2ccc3ccccc3c2)c([N+](=O)[O-])c(N)n1
inactive: [16] 92 % of control | [17] 91 % of control | [18] 98 % of control

CNc1ncnc2[nH]ncc12
inactive: [11] 100 % of control | dose: 200.0 mg/kg/injection, schedule: Q04DX003 (ip), vehicle: saline sonified 109 % of control

NC(CC1C=CCCC1)C(=O)O (centres undefined)
inactive: [16] 98 % of control | [17] 98 % of control | [18] 95 % of control

O=C1c2ccccc2OCC1CS(=O)(=O)CC1COc2ccccc2C1=O (centres undefined)
inactive: dose: 100.0 mg/kg/injection, schedule: Q04DX003 (ip), vehicle: saline 98 % of control | dose: 200.0 mg/kg/injection, schedule: Q04DX003 (ip), vehicle: saline 97 % of control | dose: 400.0 mg/kg/injection, schedule: Q04DX003 (ip), vehicle: saline 91 % of control

COc1ccc(NC2=NCCS2)cc1
inactive: [6] 100 % of control | [7] 100 % of control | [10] 100 % of control

O=c1c2ccccc2[nH]c(=S)n1-c1cccc(C(F)(F)F)c1
inactive: [11] 92 % of control | [12] 94 % of control | [13] 100 % of control

N#CCCOCNC(=O)NCOCCC#N
inactive: [1] 96 % of control | [14] 97 % of control | [15] 90 % of control
